The results in this text go back to US9868715B2 (THE BOARD OF REGENTS OF THE UNIVERSITY OF TEXAS SYSTEMS, priority 2014, dated 2018).

The subject of assay [1] is C57BL/6 mice with cerulein-induced CP. As to the kind of experiment: Chronic pancreatitis (CP) animal model, fibronectin IHC. The class given is in vivo. The settings on record: 0.5 mg/kg daily oral gavage, 3 weeks. As for the experimental part: In order to evaluate the anti-fibrotic effect of these new compounds as a proof-of-concept, the compounds were tested in a preclinical animal model of CP. CP was induced in mice using the well-established model of repeated cerulean (CR) injections (Lerch and Gorelick 2013, Gastroenterology 144:1180; Aghdassi et al. 2011, Fibrogenesis Tissue Repair 4:26). […] After four weeks, the pancreata were processed and stained for fibronectin, which is a major component of the ECM. […] ImageJ analysis of the slides quantified the significant decrease in fibrosis (p<0.001) (FIG. 4E).
Chronic pancreatitis (CP) animal model. Animal experiments were conducted under an Institutional Animal Care and Use Committee-approved protocol. CP was induced in C57BL/6 mice using supraoptimal pancreatic stimulation with cerulein (CR), a cholecystokinin analogue (Bachem, Torrance, Calif.). CP (50 μg CR/kg mouse weight) was administered via intraperitoneal route hourly for 5 h for 3 d/week for a total of 4 weeks. Control mice received phosphate buffered saline (PBS) injections following the same schedule. […] At the end of Week 4, the mice were anesthestized with isoflurane and sacrificed per protocol. The pancreata were quickly harvested and processed.
Immunohistochemistry (IHC) and image analysis. Pancreata were formalin-fixed and paraffin-embedded. Prior to staining, sections (5 μm) were deparaffinized with xylene, dehydrated with ethanol, and subjected to heat-mediated antigen retrieval (DAKO, Carpinteria, Calif.) to optimize antigen immunoreactivity. Fibronectin antibody (1:600; Santa Cruz Biotechnology, Dallas, Tex.), and biotinylated anti-goat IgG (1:400; Vector Laboratories Inc., Burlingame, Calif.) were used. […] The percent area of brown fibronectin staining was quantified using the Image Processing and Analysis in Java (ImageJ) 1.46r software (NIH, Bethesda, Md.) and a color deconvolution plug-in (Ruifrok and Johnston, Anal Quant Cytol Histol 2001, 23:291; Schneider et al., Nat Methods 2012, 9:671).

The target of assay [2] is T1, human CBS (cystathionine-β-synthase) (Homo sapiens, UniProt P35520).
T1 construct: GST (N); made in house; host or cells: E. coli BL21(DE3) Codon Plus
T1 sequence (P35520 1-551): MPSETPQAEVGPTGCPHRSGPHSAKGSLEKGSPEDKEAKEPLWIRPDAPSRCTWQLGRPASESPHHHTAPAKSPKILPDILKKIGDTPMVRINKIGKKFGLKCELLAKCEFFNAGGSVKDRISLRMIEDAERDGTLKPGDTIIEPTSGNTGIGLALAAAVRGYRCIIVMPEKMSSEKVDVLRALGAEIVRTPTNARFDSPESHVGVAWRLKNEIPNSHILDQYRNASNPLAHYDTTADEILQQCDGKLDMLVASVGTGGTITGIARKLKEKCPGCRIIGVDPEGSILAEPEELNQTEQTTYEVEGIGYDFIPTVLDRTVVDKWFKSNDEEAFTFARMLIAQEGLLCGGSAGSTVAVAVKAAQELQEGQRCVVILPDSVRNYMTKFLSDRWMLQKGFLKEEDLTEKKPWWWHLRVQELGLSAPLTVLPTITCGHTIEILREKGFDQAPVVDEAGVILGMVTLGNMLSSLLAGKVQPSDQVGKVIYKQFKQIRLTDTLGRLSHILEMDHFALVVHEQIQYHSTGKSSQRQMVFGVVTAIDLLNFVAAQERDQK
As to the kind of experiment: H2S production by recombinant CBS. To be noted: 100 μM compound; H2S production as % of control (100%). The class given is biochemical. How it is done:
Recombinant human CBS protein expression and purification. The expression and purification of human CBS was performed as described previously (Asimakopoulou et al. 2013, Br J Pharmacol. 169(4):922-32). Briefly, E. Coli BL21(DE3) Codon Plus cells (Stratagene, La Jolla, Calif., USA) containing the expression vector pGEX-Kg/GST-CBS were grown at 37° C. and 180 rpm in LuriaBertani (LB) broth medium containing 100 μg/ml ampicillin to an absorption of 0.6-0.8 at 600 nm. Protein expression was induced by addition of 0.1 mM IPTG (isopropyl-b-D-thiogalactopyranoside) and cells were further incubated at 30° C. overnight. The bacteria were harvested and sonicated in lysis buffer PBS (140 mM NaCl, 2.7 mM KCl, 10 mM Na2HPO4, 1.8 mM KH2PO4, pH 7.8) containing a protease inhibitors cocktail (Sigma). The protein lysate was loaded onto a GSTrap FF 1 ml affinity column (Amersham Biosciences) and the GST-CBS recombinant protein was eluted with the elution buffer (50 mM Tris-HCl, 10 mM reduced glutathione, pH 8.0) and then dialyzed and concentrated in 10 mM sodium phosphate buffer (pH 8.2) and DTT (1 mM).
Measurement of H2S production by recombinant CBS. The measurement of H2S production by recombinant CBS enzyme was performed as described (Asimakopoulou et al. 2013, Br J Pharmacol. 169(4):922-32). Briefly, each test consisted of a 100 μl reaction mixture in 50 mM sodium phosphate buffer pH 8.2 containing 1 μg of the purified human CBS enzyme, 0.01 mM pyridoxal-5′-phosphate (PLP), 10 mM L-cysteine and 0.5 mM homocysteine. […] The reaction was initiated by transferring the Eppendorf tubes from ice to a 37° C. shaking water bath. After 60 minutes of incubation at 37° C., the reaction was terminated by adding 1% ZnAc followed by 10% trichloroacetic acid. Subsequently, N,N-dimethylphenylendiamine sulfate (20 mM in 7.2 M HCl) and FeCl3 (30 mM in 1.2 M HCl) were added and the optical absorbance of the solutions was measured at 650 nm.

SMILES strings stand for the structures. Entries after “also recorded” stand apart in the source; their conditions may differ.

In the case of `COc1cc(OC)c2c(=O)cc(-c3ccc(OCC4CO4)cc3)oc2c1` (stereo not drawn) [Compound 23, 5,7-Dimethoxy-2-(4-oxiranylmethoxyphenyl)-chromen-4-one], the “Pancreatic fibrosis in CP model (fibronectin stain), result in words” value (from here on “Pancreatic fibrosis in CP model”) in assay [1] is recorded as “as efficacious as apigenin in reducing pancreatic fibrosis; also recorded: significantly decreased the stromal fibrosis of CP; also recorded: significantly reduced the fibrotic response; also recorded: significant efficacy to reduce pancreatic fibrosis”. For the same compound, in assay [2], the activity at 100 µM turned out to be 119%.
On to `COc1cc(OC)c2c(=O)cc(-c3ccc(OCC(O)CN4CCCCC4)cc3)oc2c1` (stereo not drawn) [Compound 24, 2-(4-(2-Hydroxy-3-piperidin-1-yl-propoxy)phenyl)-5,7-dimethoxy-chromen-4-one], for which, in assay [1], the “Pancreatic fibrosis in CP model” value was “as efficacious as apigenin in reducing pancreatic fibrosis; also recorded: significantly decreased the stromal fibrosis of CP; also recorded: significantly reduced the fibrotic response; also recorded: significant efficacy to reduce pancreatic fibrosis”. Besides, in assay [2], the activity at 100 µM stood at 79%.
Regarding `O=c1cc(-c2ccc(O)cc2)oc2cc(O)cc(O)c12` [Apigenin, 4′,5,7-trihydroxyflavone, reference compound], the “Pancreatic fibrosis in CP model” value in assay [1] is “significantly decreased the stromal fibrosis of CP; also recorded: significantly reduced the fibrotic response; also recorded: significant efficacy to reduce pancreatic fibrosis”. Besides, the activity at 100 µM in assay [2] worked out at 80.8%.
